{"source": "PubChem BioAssay AID493058", "about": "(The Scripps Research Institute Molecular Screening Center, 2011)", "note": "The source made the active and inactive calls.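 Rule for the calls: active = EC50 of 10 µM or lower; inactive = EC50 above 10 µM.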"}
{"tested_on": "DHL10 Bax/Bak-deficient cells, cytotoxicity, MTS absorbance", "assay": "cytotoxicity in Bax/Bak-deficient DHL10 cells, late-stage follow-up, counter-screen for MCL1-BIM inhibitor project, cell-based, MTS absorbance, EC50 (AID 493058)"}
{"smiles": "COc1ccc(Cc2nnc(NC(=O)Cc3cc(F)cc(F)c3)s2)cc1OC", "EC50": "> 25 µM (inactive)"}
{"smiles": "CCCC(=O)Nc1nnc(Cc2ccccc2)s1", "EC50": "> 25 µM (inactive)"}
{"smiles": "COc1ccc(NC(=O)CN(C)C(=O)c2cc(-c3ccc(C)o3)nc3ccccc23)cc1", "EC50": "> 25 µM (inactive)"}
{"smiles": "O=C(Nc1cccnc1)c1cc(-c2ccco2)nc2ccc(Br)cc12", "EC50": "> 25 µM (inactive)"}
{"smiles": "Cc1ccc(S(=O)(=O)N(C)C)cc1NC(=O)c1cc(-c2ccco2)nc2ccccc12", "EC50": "> 25 µM (inactive)"}
{"smiles": "O=C(Nc1cccc(F)c1)c1cc(-c2ccco2)nc2ccccc12", "EC50": "> 25 µM (inactive)"}
{"smiles": "COc1cccc(NC(=O)c2cc(-c3ccco3)nc3ccccc23)c1", "EC50": "> 25 µM (inactive)"}
{"smiles": "NS(=O)(=O)c1ccc(CCNC(=O)c2cc(-c3ccco3)nc3ccccc23)cc1", "EC50": "> 25 µM (inactive)"}
{"smiles": "Cc1ccc2nc(NC(=O)c3cc(-c4ccco4)nc4ccccc34)sc2c1", "EC50": "> 25 µM (inactive)"}
{"smiles": "O=C(c1cc(-c2ccco2)nc2ccccc12)N(Cc1nnc(-c2ccc(Cl)cc2)o1)C1CC1", "EC50": "> 25 µM (inactive)"}
{"smiles": "COc1ccc(Cc2nnc(NC(=O)Cc3ccc(-c4ccccc4)cc3)s2)cc1OC", "EC50": "> 25 µM (inactive)"}
{"smiles": "CC(=O)N1CCN(C(=O)c2cc(-c3ccc(C)o3)nc3ccccc23)CC1", "EC50": "> 25 µM (inactive)"}
{"smiles": "O=C(NC1CCC(O)CC1)c1cc(-c2ccco2)nc2ccccc12", "note": "(stereo unspecified)", "EC50": "> 25 µM (inactive)"}
{"smiles": "COc1ccc(NC(=O)c2cc(-c3ccco3)nc3ccccc23)cn1", "EC50": "> 25 µM (inactive)"}
{"smiles": "COc1ccc(NC(=O)c2cc(-c3ccc(C)o3)nc3ccccc23)cc1", "EC50": "> 25 µM (inactive)"}
{"smiles": "COc1ccc(NC(=O)c2cc(-c3ccc(C)o3)nc3ccccc23)c(OC)c1", "EC50": "> 25 µM (inactive)"}
{"smiles": "COc1ccc(NC(=O)c2cc(-c3ccc(C)o3)nc3ccccc23)cc1OC", "EC50": "> 25 µM (inactive)"}
{"smiles": "CCC(=O)Nc1nnc(Cc2ccccc2)s1", "EC50": "> 25 µM (inactive)"}
{"smiles": "CCCCN(C(=O)c1cc(-c2ccco2)nc2ccccc12)c1c(N)n(CCC)c(=O)[nH]c1=O", "EC50": "> 25 µM (inactive)"}
{"smiles": "COc1ccc(NC(=O)c2cc(-c3ccco3)nc3ccccc23)cc1S(=O)(=O)N1CCOCC1", "EC50": "> 25 µM (inactive)"}
{"smiles": "CCN(CC)C(=O)COc1ccc2c(-c3ccccc3)cc(=O)oc2c1", "EC50": "> 25 µM (inactive)"}
{"smiles": "O=C(Nc1cccc(S(=O)(=O)NC2=NCCCCC2)c1)c1cc(-c2ccco2)nc2ccccc12", "EC50": "> 25 µM (inactive)"}
{"smiles": "O=C(NCC1CCCO1)c1cc(-c2ccco2)nc2ccccc12", "note": "(stereo unspecified)", "EC50": "> 25 µM (inactive)"}
{"smiles": "CN(CCOc1ccccc1)C(=O)c1cc(-c2ccco2)nc2ccccc12", "EC50": "> 25 µM (inactive)"}
{"smiles": "Cc1csc(NC(=O)c2cc(-c3ccco3)nc3ccccc23)n1", "EC50": "> 25 µM (inactive)"}
{"smiles": "Cc1ccc(-c2cc(C(=O)N3CC(C)OC(C)C3)c3ccccc3n2)o1", "note": "(stereo unspecified)", "EC50": "> 25 µM (inactive)"}
{"smiles": "CN(CC(=O)Nc1cccc(F)c1)C(=O)c1cc(-c2ccco2)nc2ccccc12", "EC50": "> 25 µM (inactive)"}
{"smiles": "COc1ccc(Cc2nnc(NC(=O)c3cc(-c4ccco4)nc4ccccc34)s2)cc1OC", "EC50": "> 25 µM (inactive)"}
{"smiles": "CCN(CC)C(=O)COc1ccc2c(-c3ccc(OC)cc3)cc(=O)oc2c1C", "EC50": "> 25 µM (inactive)"}
{"smiles": "CCCCN(C(=O)c1cc(-c2ccco2)nc2ccccc12)c1c(N)n(CCCC)c(=O)[nH]c1=O", "EC50": "> 25 µM (inactive)"}
{"smiles": "O=C(Nc1cccc(S(=O)(=O)NC2=NCCC2)c1)c1cc(-c2ccco2)nc2ccccc12", "EC50": "> 25 µM (inactive)"}
{"smiles": "COC(=O)C1CCN(C(=O)c2cc(-c3ccco3)nc3ccccc23)CC1", "EC50": "> 25 µM (inactive)"}
{"smiles": "O=C(Nc1nccs1)c1cc(-c2ccco2)nc2ccccc12", "EC50": "> 25 µM (inactive)"}
{"smiles": "Cc1ccc(NC(=O)c2cc(-c3ccco3)nc3ccccc23)cc1S(=O)(=O)N1CCOCC1", "EC50": "> 25 µM (inactive)"}
{"smiles": "Cc1ccc(-c2cc(C(=O)N3CCN(c4ccccc4O)CC3)c3ccccc3n2)o1", "EC50": "> 25 µM (inactive)"}
{"smiles": "Cc1ccc(-c2cc(C(=O)NCCN3CCOCC3)c3ccccc3n2)o1", "EC50": "> 25 µM (inactive)"}
